Data published in patent publication EP2362225 (dated 2011).
Entries after “also recorded” stand apart in the source; their conditions may differ.

Experiments:
[1] = tested on: T2 20S proteasomes (standard proteasome); assay: 20S proteasomes purified from T2 cells in Hepes buffer; conditions: human, 37°C, up to 48 hours
[2] = tested on: T2.27 20S proteasomes (immunoproteasomes); assay: 20S proteasomes purified from T2.27 cells in Hepes buffer; conditions: human T2 cells transfected with murine LMP2 and LMP7, 37°C, up to 48 hours
[3] = tested on: 20S proteasomes of T2 cells (standard proteasome); assay: T2 20S proteasomes (standard proteasome) in Hepes buffer; conditions: human, 37°C, up to 48 hours
[4] = tested on: 20S proteasomes of T2.27 cells (immunoproteasomes); assay: T2.27 20S proteasomes (immunoproteasomes) in Hepes buffer; conditions: human T2 cells transfected with murine LMP2 and LMP7 subunits, 37°C, up to 48 hours
LcL 20S proteasomes = assay: 3 µg LcL 20S proteasomes in 100 µl buffer; gp10040-52 and its heavy analogue digested together; conditions: human, up to 36 hours
[5] = tested on: 20S proteasomes of Lymphoblastoid cell Lines (LcL); assay: LcL 20S proteasomes in Hepes buffer (Hepes 20 mM, KCI 1 mM, MgCl 0.5 mM, DTT 1 mM, NaN3 1 mM, pH 7.3); conditions: human, 37°C, up to 48 hours

fragment found (proteasome) | fragment found [1] | Substance | fragment found [2] | fragment found [3] | fragment found [4] | fragment found (LcL 20S proteasomes) | fragment found [5]
gp10040-42/47-52 [RTK][QLYPEW] | gp10047-52/40-42 [QLYPEW][RTK] | RTKAWNRQLYPEW | gp10040-42/47-52 [RTK][QLYPEW]; also recorded: gp10047-52/40-42 [QLYPEW][RTK] | [RTK][QLYPEW]; also recorded: [QLYPEW][RTK] | [RTK][QLYPEW]; also recorded: [QLYPEW][RTK] | gp10040-042/47-52-α; also recorded: gp10047-52/40-42-α | gp10040-42/47-52 [RTK][QLYPEW]; also recorded: gp10047-52/40-42 [QLYPEW][RTK]
– | – | RTK^+6AWNRQL^+1YPEW | – | – | – | gp10040-42/47-52-δ; also recorded: gp10047-52/40-42-δ | –
– | – | VSRQLRTKAWNRQLYPEWTEAQR | – | [VSRQL][VSRQL] (gp10035-39/35-39); also recorded: [QLYPEWTEA][VSRQL] (gp10047-55/35-39) | [VSRQL][VSRQL] (gp10035-39/35-39); also recorded: [QLYPEWTEA][VSRQL] (gp10047-55/35-39) | – | –
